Data on 34 molecules can be found in US8541588B2, “Sulfonamide derivatives” (Pfizer Limited, priority 2009, dated 2013).

The target of the first test is T1, Nav1.7 (or SCN9A) channel; HEK cells stably transfected with hSCN9A (Homo sapiens, UniProt Q15858).
T1 construct: expressed in transfected cells
T1 sequence (Q15858 whole entry): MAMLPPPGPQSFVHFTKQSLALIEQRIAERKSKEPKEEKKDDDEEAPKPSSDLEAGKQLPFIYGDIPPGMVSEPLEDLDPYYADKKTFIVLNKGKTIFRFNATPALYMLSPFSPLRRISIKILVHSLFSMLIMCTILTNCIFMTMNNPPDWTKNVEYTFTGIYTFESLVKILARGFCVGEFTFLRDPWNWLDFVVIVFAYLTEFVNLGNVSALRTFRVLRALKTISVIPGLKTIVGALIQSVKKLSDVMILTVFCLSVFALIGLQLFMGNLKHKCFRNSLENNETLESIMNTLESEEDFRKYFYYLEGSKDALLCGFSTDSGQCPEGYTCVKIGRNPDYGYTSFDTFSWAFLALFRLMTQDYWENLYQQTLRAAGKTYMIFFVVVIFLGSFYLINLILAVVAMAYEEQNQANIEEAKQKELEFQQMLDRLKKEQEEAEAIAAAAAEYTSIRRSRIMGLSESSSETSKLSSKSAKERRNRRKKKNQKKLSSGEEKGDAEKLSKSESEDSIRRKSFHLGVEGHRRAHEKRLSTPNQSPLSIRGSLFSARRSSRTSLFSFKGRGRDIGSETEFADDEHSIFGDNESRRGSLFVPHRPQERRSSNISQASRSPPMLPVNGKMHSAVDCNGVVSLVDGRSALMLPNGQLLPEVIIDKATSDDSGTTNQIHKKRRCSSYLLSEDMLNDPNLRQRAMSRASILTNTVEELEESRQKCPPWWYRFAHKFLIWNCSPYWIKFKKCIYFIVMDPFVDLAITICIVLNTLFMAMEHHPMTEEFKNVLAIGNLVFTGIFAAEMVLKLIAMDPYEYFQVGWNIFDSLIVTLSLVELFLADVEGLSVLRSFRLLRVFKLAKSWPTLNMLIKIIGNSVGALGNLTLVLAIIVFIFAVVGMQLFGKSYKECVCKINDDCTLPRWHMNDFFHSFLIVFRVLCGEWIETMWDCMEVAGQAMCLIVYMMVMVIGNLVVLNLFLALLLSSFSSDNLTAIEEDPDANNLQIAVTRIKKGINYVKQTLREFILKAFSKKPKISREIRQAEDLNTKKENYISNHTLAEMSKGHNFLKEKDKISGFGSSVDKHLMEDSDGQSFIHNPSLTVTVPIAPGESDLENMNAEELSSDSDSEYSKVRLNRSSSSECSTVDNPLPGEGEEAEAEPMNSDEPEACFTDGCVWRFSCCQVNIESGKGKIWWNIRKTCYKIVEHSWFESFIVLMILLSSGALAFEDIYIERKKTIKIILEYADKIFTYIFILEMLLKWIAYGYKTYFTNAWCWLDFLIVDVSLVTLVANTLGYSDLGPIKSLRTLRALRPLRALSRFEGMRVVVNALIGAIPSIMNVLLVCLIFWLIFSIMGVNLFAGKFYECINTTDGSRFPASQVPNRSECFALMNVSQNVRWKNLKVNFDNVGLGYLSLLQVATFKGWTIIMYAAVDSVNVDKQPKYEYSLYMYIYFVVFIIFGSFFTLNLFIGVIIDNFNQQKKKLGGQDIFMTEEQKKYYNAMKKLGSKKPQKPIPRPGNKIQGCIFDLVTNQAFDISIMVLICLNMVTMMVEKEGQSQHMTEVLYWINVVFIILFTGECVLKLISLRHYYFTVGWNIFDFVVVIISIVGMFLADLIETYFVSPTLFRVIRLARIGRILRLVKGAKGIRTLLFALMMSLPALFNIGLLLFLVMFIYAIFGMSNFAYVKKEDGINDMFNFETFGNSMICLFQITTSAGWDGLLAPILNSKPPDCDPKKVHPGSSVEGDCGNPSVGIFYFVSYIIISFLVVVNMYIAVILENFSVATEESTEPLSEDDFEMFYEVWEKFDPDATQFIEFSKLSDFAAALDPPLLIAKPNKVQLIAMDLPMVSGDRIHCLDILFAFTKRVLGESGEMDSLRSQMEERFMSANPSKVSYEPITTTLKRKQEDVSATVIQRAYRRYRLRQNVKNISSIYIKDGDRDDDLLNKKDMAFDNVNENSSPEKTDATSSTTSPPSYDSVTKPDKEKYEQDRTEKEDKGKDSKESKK
The test can be described thus: Nav1.7 block, PatchXpress 7000 automated whole-cell voltage clamp, estimated IC50 (EIC50). The conditions noted are these: PatchXpress platform; hSCN9A HEK cells held at V1/2 of inactivation; estimated IC50. Type of test: cell-based.
The IC50 is the midpoint of a concentration-inhibition curve. On to `O=S(=O)(Nc1nccs1)c1ccc(Oc2cccc(OCc3ccccc3)c2)c(F)c1` [Example 119, 4-[3-(benzyloxy)phenoxy]-3-fluoro-N-1,3-thiazol-2-ylbenzenesulfonamide], for which the half-maximal inhibitory concentration (IC50) is 17700 nM.

With `Cc1cc(Oc2ccc(S(=O)(=O)Nc3nccs3)cc2F)n(-c2ccccc2)n1` [Example 231, 3-fluoro-4-(5-methyl-2-phenyl-2H-pyrazol-3-yloxy)-N-thiazol-2-yl-benzenesulfonamide], the half-inhibitory concentration (IC50) is 470 nM.

Take `N#Cc1cc(S(=O)(=O)Nc2cscn2)ccc1Oc1ccccc1-c1ccccc1` [Example 97, 4-(biphenyl-2-yloxy)-3-cyano-N-1,3-thiazol-4-ylbenzenesulfonamide]: the IC50 was 2320 nM.

With `Cn1ncc(-c2ccccc2)c1Oc1ccc(S(=O)(=O)Nc2ncc(Cl)s2)cc1C#N` [Example 138, N-(5-chloro-1,3-thiazol-2-yl)-3-cyano-4-[(1-methyl-4-phenyl-1H-pyrazol-5-yl)oxy]benzenesulfonamide], the IC50 is 38700 nM.

On to `Cn1ccc(-c2cc(Cl)ccc2Oc2ccc(S(=O)(=O)Nc3nccs3)cc2F)n1` [Example 216, 4-(4-chloro-2-(1-methyl-1H-pyrazol-3-yl)phenoxy)-3-fluoro-N-(thiazol-2-yl)benzenesulfonamide], for which the IC50 is 910 nM.

On to `N#Cc1cc(S(=O)(=O)Nc2ncns2)ccc1Oc1ccccc1Oc1ccccc1C(N)=O` [Example 76, 2-(2-{2-cyano-4-[(1,2,4-thiadiazol-5-yl-amino)sulfonyl]phenoxy}phenoxy)benzamide], for which the half-maximal inhibitory concentration (IC50) is >10000 nM.

For the molecule `COc1ccc(-c2cc(F)ccc2Oc2ccc(S(=O)(=O)Nc3nccs3)cc2C#N)cn1` [Example 151, 3-cyano-4-[4-fluoro-2-(6-methoxypyridin-3-yl)phenoxy]-N-1,3-thiazol-2-ylbenzenesulfonamide], the IC50 was 50 nM.

With `N#Cc1cc(S(=O)(=O)Nc2ncns2)ccc1Oc1ccc(F)cc1-c1ccnn1CC(F)(F)F` [Example 26, 3-cyano-4-(4-fluoro-2-(1-(2,2,2-trifluoroethyl)-1H-pyrazol-5-yl)phenoxy)-N-(1,2,4-thiadiazol-5-yl)benzenesulfonamide], the IC50 is 450 nM.

As to `O=S(=O)(Nc1nccs1)c1ccc(Oc2cnn(Cc3ccc(Cl)cc3)c2)c(F)c1` [Example 235, 4-(1-(4-chlorobenzyl)-1H-pyrazol-4-yloxy)-3-fluoro-N-(thiazol-2-yl)benzenesulfonamide], the 50% inhibitory concentration (IC50) is 760 nM.

As for `COc1ccc(-n2cc(Oc3ccc(S(=O)(=O)Nc4ncc(Cl)s4)cc3C#N)c(C(C)C)n2)cc1` [Example 145, N-(5-chloro-1,3-thiazol-2-yl)-3-cyano-4-{[3-isopropyl-1-(4-methoxyphenyl)-1H-pyrazol-4-yl]oxy}benzenesulfonamide], the half-maximal inhibitory concentration (IC50) was 2000 nM.

Staying with this test, now noted: estimated IC50; hSCN9A HEK cells, PatchXpress platform; Examples 283-814.
As to `Cn1nccc1-c1cc(C(F)(F)F)ccc1Oc1cc(F)c(S(=O)(=O)Nc2ncns2)cc1F` [Example 468, 2,5-difluoro-4-[2-(1-methyl-1H-pyrazol-5-yl)-4-(trifluoromethyl)phenoxy]-N-1,2,4-thiadiazol-5-ylbenzenesulfonamide], the IC50 was 29 nM.

With `O=S(=O)(Nc1nncs1)c1cc(Cl)c(Oc2ccc(Cl)cc2-c2ccnn2CCO)cc1F` [Example 748, 5-chloro-4-{4-chloro-2-[1-(2-hydroxyethyl)-1H-pyrazol-5-yl]phenoxy}-2-fluoro-N-1,3,4-thiadiazol-2-ylbenzenesulfonamide], the IC50 is 170 nM.

For `Cn1nccc1-c1cc(Oc2ccc(S(=O)(=O)Nc3nccs3)cc2C#N)ccc1Cl` [Example 648, 4-[4-chloro-3-(1-methyl-1H-pyrazol-5-yl)phenoxy]-3-cyano-N-1,3-thiazol-2-ylbenzenesulfonamide], the IC50 was 1600 nM.

As for `CN1CC(n2nccc2-c2cc(Cl)ccc2Oc2ccc(S(=O)(=O)Nc3cscn3)cc2C#N)C1` [Example 729, 4-{4-chloro-2-[1-(1-methylazetidin-3-yl)-1H-pyrazol-5-yl]phenoxy}-3-cyano-N-1,3-thiazol-4-ylbenzenesulfonamide], the 50% inhibitory concentration (IC50) is 22 nM.

On to `Cn1nc(C(F)(F)F)cc1-c1ccc(Oc2ccc(S(=O)(=O)Nc3nccs3)cc2C#N)cn1` [Example 647, 3-cyano-4-({6-[1-methyl-3-(trifluoromethyl)-1H-pyrazol-5-yl]pyridin-3-yl}oxy)-N-1,3-thiazol-2-ylbenzenesulfonamide], for which the IC50 is 2900 nM.

Regarding `Nc1cc(-c2cc(Cl)ccc2Oc2cc(F)c(S(=O)(=O)Nc3ccncn3)cc2Cl)ccn1` [Example 812, 4-[2-(2-aminopyridin-4-yl)-4-chlorophenoxy]-5-chloro-2-fluoro-N-pyrimidin-4-ylbenzenesulfonamide], the concentration for half-maximal inhibition (IC50) is 5.1 nM.

`Cn1nccc1-c1cc(Cl)ccc1Oc1ccc(S(=O)(=O)Nc2ncsc2Cl)cc1C#N` [Example 413, 4-[4-chloro-2-(1-methyl-1H-pyrazol-5-yl)phenoxy]-N-(5-chloro-1,3-thiazol-4-yl)-3-cyanobenzenesulfonamide]: the half-inhibitory concentration (IC50) was 12000 nM.

`Cc1cncnc1NS(=O)(=O)c1ccc(Oc2ccccc2-c2ccccc2)c(C#N)c1` [Example 428, 4-(biphenyl-2-yloxy)-3-cyano-N-(5-methylpyrimidin-4-yl)benzenesulfonamide]: the IC50 is >10000 nM.

As to `CCn1nc(C(F)(F)F)cc1-c1ccc(Oc2ccc(S(=O)(=O)Nc3nc(C)ns3)cc2C#N)cc1` [Example 291, 3-cyano-4-{4-[1-ethyl-3-(trifluoromethyl)-1H-pyrazol-5-yl]phenoxy}-N-(3-methyl-1,2,4-thiadiazol-5-yl)benzenesulfonamide], the half-maximal inhibitory concentration (IC50) was 2500 nM.

As for `N#Cc1cc(S(=O)(=O)Nc2nccs2)ccc1Oc1cnn(-c2ccc(Cl)cc2)c1` [Example 332, 4-{[1-(4-chlorophenyl)-1H-pyrazol-4-yl]oxy}-3-cyano-N-1,3-thiazol-2-ylbenzenesulfonamide], the IC50 was >1000 nM.

As to `O=S(=O)(Nc1ncns1)c1cc(F)c(Oc2ccc(C(F)(F)F)cc2C2CCOCC2)cc1F` [Example 633, 2,5-difluoro-4-[2-(tetrahydro-2H-pyran-4-yl)-4-(trifluoromethyl)phenoxy]-N-1,2,4-thiadiazol-5-ylbenzenesulfonamide], the 50% inhibitory concentration (IC50) is 27 nM.

Regarding `N#Cc1cc(S(=O)(=O)Nc2nccs2)ccc1Oc1ccc(-n2ccc(C(F)(F)F)n2)c(Cl)c1` [Example 380, 4-{3-chloro-4-[3-(trifluoromethyl)-1H-pyrazol-1-yl]phenoxy}-3-cyano-N-1,3-thiazol-2-ylbenzenesulfonamide], the half-maximal inhibitory concentration (IC50) is 200 nM.

Turning to `COc1cccc(-c2cc(Oc3ccc(S(=O)(=O)Nc4ncc(F)s4)cc3C#N)ccc2Cl)c1` [Example 531, 4-[(6-chloro-3′-methoxybiphenyl-3-yl)oxy]-3-cyano-N-(5-fluoro-1,3-thiazol-2-yl)benzenesulfonamide], the IC50 is 1100 nM.

Turning to `Cn1nc(C(F)(F)F)cc1-c1cc(F)c(F)c(Oc2ccc(S(=O)(=O)Nc3nccs3)cc2C#N)c1` [Example 472, 3-cyano-4-{2,3-difluoro-5-[1-methyl-3-(trifluoromethyl)-1H-pyrazol-5-yl]phenoxy}-N-1,3-thiazol-2-ylbenzenesulfonamide], the IC50 was 970 nM.

For `O=S(=O)(Nc1ncns1)c1cc(F)c(Oc2ccc(F)cc2-c2ccn[nH]2)cc1F` [Example 781, 2,5-difluoro-4-[4-fluoro-2-(1H-pyrazol-5-yl)phenoxy]-N-1,2,4-thiadiazol-5-ylbenzenesulfonamide], the IC50 was 22 nM.

For the molecule `N#Cc1cc(S(=O)(=O)Nc2nccs2)ccc1Oc1ccc(-c2ncccc2Cl)cc1` [Example 456, 4-[4-(3-chloropyridin-2-yl)phenoxy]-3-cyano-N-1,3-thiazol-2-ylbenzenesulfonamide], the IC50 is 1900 nM.

Take `O=S(=O)(Nc1nccs1)c1ccc(Oc2ccc(OC(F)(F)F)cc2-c2cn[nH]c2)c(F)c1` [Example 687, 3-fluoro-4-[2-(1H-pyrazol-4-yl)-4-(trifluoromethoxy)phenoxy]-N-1,3-thiazol-2-ylbenzenesulfonamide]: the IC50 was 80 nM.

Consider `Cn1nc(C(F)(F)F)cc1-c1ccc(Oc2ccc(S(=O)(=O)Nc3nccs3)cc2C#N)c(C#N)c1` [Example 292, 3-cyano-4-{2-cyano-4-[1-methyl-3-(trifluoromethyl)-1H-pyrazol-5-yl]phenoxy}-N-1,3-thiazol-2-ylbenzenesulfonamide], for which the IC50 is 44 nM.

On to `N#Cc1cc(S(=O)(=O)Nc2nccs2)ccc1Oc1ccc(-c2nccc(C(F)(F)F)n2)cc1` [Example 454, 3-cyano-N-1,3-thiazol-2-yl-4-{4-[4-(trifluoromethyl)pyrimidin-2-yl]phenoxy}benzenesulfonamide], for which the IC50 was >1000 nM.

For `Cc1cn(C)nc1-c1ccc(Oc2ccc(S(=O)(=O)Nc3nccs3)cc2C#N)cc1` [Example 470, 3-cyano-4-[4-(1,4-dimethyl-1H-pyrazol-3-yl)phenoxy]-N-1,3-thiazol-2-ylbenzenesulfonamide], the half-inhibitory concentration (IC50) is 3400 nM.

The test is the same for the next values; noted with them: estimated IC50; hSCN9A HEK cells, PatchXpress platform; Examples 815-1040.
With `O=S(=O)(Nc1ncns1)c1ccc(Oc2ccc(Cl)cc2-c2ccnnc2)c(Cl)c1` [Example 898, 3-chloro-4-(4-chloro-2-pyridazin-4-ylphenoxy)-N-1,2,4-thiadiazol-5-ylbenzenesulfonamide], the 50% inhibitory concentration (IC50) is 5.1 nM.

`N#Cc1cc(S(=O)(=O)Nc2ncns2)ccc1Oc1ccc(F)cc1-c1cocn1` [Example 889, 3-cyano-4-[4-fluoro-2-(1,3-oxazol-4-yl)phenoxy]-N-1,2,4-thiadiazol-5-ylbenzenesulfonamide]: the IC50 is 670 nM.

For `O=C(c1cccc(-c2cc(Cl)ccc2Oc2cc(F)c(S(=O)(=O)Nc3cscn3)cc2Cl)c1)N1CCC1` [Example 856, 4-{[3′-(azetidin-1-ylcarbonyl)-5-chlorobiphenyl-2-yl]oxy}-5-chloro-2-fluoro-N-1,3-thiazol-4-ylbenzenesulfonamide], the half-inhibitory concentration (IC50) was 22 nM.

Consider `N#Cc1cc(S(=O)(=O)Nc2ncns2)ccc1Oc1ccc(Cl)cc1-c1cccc(CC(=O)O)c1` [Example 1000, (5′-chloro-2′-{2-cyano-4-[(1,2,4-thiadiazol-5-ylamino)sulfonyl]phenoxy}biphenyl-3-yl)acetic acid], for which the IC50 was 130 nM.
